# ChEMBL document CHEMBL4351024, “Steroidal N-Sulfonylimidates: Synthesis and biological evaluation in breast cancer cells” (Eur J Med Chem, 2019)
# Calls of active or inactive are those of the source. The rule behind the calls is not given here.
# Legend:
# MCF7 = assay: Antiproliferative activity against human MCF7 cells assessed as reduction in cell viability after 72 hrs by MTT assay; assay type: functional, cell-based
# MCF-10A [1] = assay: Cytotoxicity against human MCF10A assessed as reduction in cell viability up to 12 uM after 72 hrs by MTT assay; assay type: cell-based
# [2] = molecular target: Serine/threonine-protein kinase mTOR (Homo sapiens) (UniProt P42345); assay: Inhibition of mTOR phosphorylation in human MDA-MB-231 cells up to 50 uM measured after 48 hrs by Western blot analysis; assay type: cell-based
# MDA-MB-231 [3] = assay: Antiproliferative activity against human MDA-MB-231 cells assessed as reduction in cell viability after 72 hrs by MTT assay; assay type: functional, cell-based; settings: MDA-MB-231, 72 h
# [4] = molecular target: Transcription factor p65 (Homo sapiens) (UniProt Q04206); assay: Down regulation of NFkappaB p65 phosphorylation in human MDA-MB-231 cells up to 50 uM measured after 48 hrs by Western blot analysis; assay type: cell-based
# Chain of Transcription factor p65 (Homo sapiens) (Q04206 whole entry): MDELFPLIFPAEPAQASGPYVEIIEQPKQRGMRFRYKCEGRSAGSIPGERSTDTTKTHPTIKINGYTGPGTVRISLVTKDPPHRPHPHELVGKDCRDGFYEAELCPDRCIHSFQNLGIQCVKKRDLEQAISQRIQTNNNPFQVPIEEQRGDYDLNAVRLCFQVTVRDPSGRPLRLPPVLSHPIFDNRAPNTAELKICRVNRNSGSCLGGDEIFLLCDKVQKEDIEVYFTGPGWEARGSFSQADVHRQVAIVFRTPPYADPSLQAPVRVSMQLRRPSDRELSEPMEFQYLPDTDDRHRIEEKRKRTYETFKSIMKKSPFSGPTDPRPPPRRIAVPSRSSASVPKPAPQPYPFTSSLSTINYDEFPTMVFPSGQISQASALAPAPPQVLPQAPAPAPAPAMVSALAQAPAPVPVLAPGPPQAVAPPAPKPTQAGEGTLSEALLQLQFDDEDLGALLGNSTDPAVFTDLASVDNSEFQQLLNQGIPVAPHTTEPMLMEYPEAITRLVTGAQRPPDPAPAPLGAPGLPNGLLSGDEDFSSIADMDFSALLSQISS
# MDA-MB-231 [5] = assay: Downregulation of cyclin-D1 expression in human MDA-MB-231 cells up to 50 uM measured after 48 hrs by Westernblot analysis; assay type: functional, cell-based
# [6] = Effect on RAS/RAF/MEK/ERK pathway in human MDA-MB-231 cells assessed as increase in ERK1/2 phosphorylation up to 50 uM measured after 48 hrs by Western blot analysis; assay type: cell-based
# MDA-MB-231 [7] = assay: Down regulation of slug levels in human MDA-MB-231 cells up to 50 uM measured after 48 hrs by Westernblot analysis; assay type: functional, cell-based
# MCF-10A [8] = assay: Cytotoxicity against human MCF10A assessed as reduction in cell viability at 25 uM after 72 hrs by MTT assay; assay type: cell-based
# MDA-MB-231 [9] = assay: Effect on EGFR expression in human MDA-MB-231 cells up to 50 uM measured after 48 hrs by Westernblot analysis; assay type: functional, cell-based
# [10] = Homo sapiens, MCF7, 72 h, read-out: IC50
SMILES,IC50 (MCF7; [10]),further results
COc1ccc2c(c1)CC[C@@H]1[C@@H]2CC[C@@]2(C)[C@H]1CC[C@@]2(O)CC(=O)NS(=O)(=O)c1ccc(C)cc1,,IC50 (MCF7; mcf7): Not Active
COc1ccc2c(c1)CC[C@@H]1[C@@H]2CC[C@@]2(C)[C@H]1CC[C@]2(C/C(=N\S(=O)(=O)c1ccc(C)cc1)OCCC(C)C)OC,21.7 µM,
COc1ccc2c(c1)CC[C@@H]1[C@@H]2CC[C@@]2(C)[C@H]1CC[C@]2(C/C(=N\S(=O)(=O)c1ccc(C)cc1)OC(C)C)OC,4.3 µM,Activity (MCF-10A [1]): Non-Toxic; inhibition [2]: inactive; IC50 (MDA-MB-231 [3]): 11.3 µM; Activity [4]: Active; Activity (MDA-MB-231 [5]): Active; Activity [6]: Active; Activity (MDA-MB-231 [7]): Active; Activity (MCF-10A [8]): Toxic; Activity (MDA-MB-231 [9]): inactive
CCO/C(CC1=CC[C@H]2[C@@H]3CCc4cc(OC(C)=O)ccc4[C@H]3CC[C@]12C)=N/S(=O)(=O)c1ccc(C)cc1,5.6 µM,
COc1ccc2c(c1)CC[C@@H]1[C@@H]2CC[C@@]2(C)[C@H]1CC[C@]2(C/C(=N\S(=O)(=O)c1ccc(C)cc1)OC1CCCCC1)OC,20 µM,
COc1ccc2c(c1)CC[C@@H]1[C@@H]2CC[C@@]2(C)[C@H]1CC[C@]2(C/C(=N\S(=O)(=O)c1ccc(C)cc1)OCC(Cl)(Cl)Cl)OC,22.2 µM,
CCO/C(CC1=CC[C@H]2[C@@H]3CCc4cc(OC)ccc4[C@H]3CC[C@]12C)=N/S(=O)(=O)c1ccc(C)cc1,9.5 µM,
CCO/C(C[C@]1(O)CC[C@H]2[C@@H]3CCc4cc(OS(=O)(=O)c5ccc(C)cc5)ccc4[C@H]3CC[C@@]21C)=N/S(=O)(=O)c1ccc(C)cc1,,IC50 (MCF7; mcf7): Not Active
CCCCCCCCCCCCO/C(C[C@]1(OC)CC[C@H]2[C@@H]3CCc4cc(OC)ccc4[C@H]3CC[C@@]21C)=N/S(=O)(=O)c1ccc(C)cc1,,IC50 (MCF7; mcf7): Not Active
CCCCCCO/C(C[C@]1(OC)CC[C@H]2[C@@H]3CCc4cc(OC)ccc4[C@H]3CC[C@@]21C)=N/S(=O)(=O)c1ccc(C)cc1,,IC50 (MCF7; mcf7): Not Active
CCO/C(C[C@]1(O)CC[C@H]2[C@@H]3CCc4cc(OCc5ccccc5)ccc4[C@H]3CC[C@@]21C)=N/S(=O)(=O)c1ccc(C)cc1,,IC50 (MCF7; mcf7): Not Active
Cc1ccc(S(=O)(=O)NC(=O)C[C@]2(O)CC[C@H]3[C@@H]4CCc5cc(O)ccc5[C@H]4CC[C@@]32C)cc1,,IC50 (MCF7; mcf7): Not Active
CCCCCCCO/C(C[C@]1(OC)CC[C@H]2[C@@H]3CCc4cc(OC)ccc4[C@H]3CC[C@@]21C)=N/S(=O)(=O)c1ccc(C)cc1,,IC50 (MCF7; mcf7): Not Active

# Second part, led by results:
IC50 (MCF7; [10]),SMILES,further results
17.9 µM,CCCO/C(C[C@]1(O)CC[C@H]2[C@@H]3CCc4cc(OC(C)=O)ccc4[C@H]3CC[C@@]21C)=N/S(=O)(=O)c1ccc(C)cc1,
9.9 µM,CCO/C(C[C@]1(O)CC[C@H]2[C@@H]3CCC4=CC(=O)CC[C@]4(C)[C@H]3CC[C@@]21C)=N/S(=O)(=O)c1ccc(C)cc1,
4.5 µM,CCCO/C(C[C@]1(OC)CC[C@H]2[C@@H]3CCc4cc(OC)ccc4[C@H]3CC[C@@]21C)=N/S(=O)(=O)c1ccc(C)cc1,
10.5 µM,CCCCO/C(C[C@]1(OC)CC[C@H]2[C@@H]3CCc4cc(OC)ccc4[C@H]3CC[C@@]21C)=N/S(=O)(=O)c1ccc(C)cc1,
15.3 µM,CCO/C(C[C@]1(O)CC[C@H]2[C@@H]3CCc4cc(O)ccc4[C@H]3CC[C@@]21C)=N/S(=O)(=O)c1ccc(C)cc1,
7 µM,CCO/C(C[C@]1(OC)CC[C@H]2[C@@H]3CCc4cc(OC)ccc4[C@H]3CC[C@@]21C)=N/S(=O)(=O)c1ccc(C)cc1,
11.4 µM,COc1ccc2c(c1)CC[C@@H]1[C@@H]2CC[C@@]2(C)[C@H]1CC[C@]2(C/C(=N\S(=O)(=O)c1ccc(C)cc1)OCCCCl)OC,
11.8 µM,CCO/C(C[C@]1(O)CC[C@H]2[C@@H]3CCc4cc(OC)ccc4[C@H]3CC[C@@]21C)=N/S(=O)(=O)c1ccc(C)cc1,
15.5 µM,CCCO/C(C[C@]1(O)CC[C@H]2[C@@H]3CCc4cc(OC)ccc4[C@H]3CC[C@@]21C)=N/S(=O)(=O)c1ccc(C)cc1,
22.4 µM,CCCO/C(C[C@]1(O)CC[C@H]2[C@@H]3CCC4=CC(=O)CC[C@]4(C)[C@H]3CC[C@@]21C)=N/S(=O)(=O)c1ccc(C)cc1,
12.2 µM,CCO/C(C[C@]1(O)CC[C@H]2[C@@H]3CCc4cc(OC(C)=O)ccc4[C@H]3CC[C@@]21C)=N/S(=O)(=O)c1ccc(C)cc1,
8.5 µM,COc1ccc2c(c1)CC[C@@H]1[C@@H]2CC[C@@]2(C)[C@H]1CC[C@]2(C/C(=N\S(=O)(=O)c1ccc(C)cc1)OCC(C)C)OC,
